Assay: Human HepG2 cell viability assay in 384 well format
Type: toxicity, cell-based
Design: dose 125 nL, time 70.5 hour; concentration not given beside the values
Conditions: HepG2 cells, read-out: Inhibition

Row | Compound | cytotoxicity at 70.5 h [%]
1 | COc1cc(C)ccc1C(=O)N1CCC2(CCC(=O)N(C(C)C)C2)CC1 | -4.16
2 | CCc1cnc(N2C[C@@H]3[C@@H](C(=O)N(C)C)CCS(=O)(=O)[C@@H]3C2)nc1 | -7.5
3 | Cc1cncc(C(=O)N2C[C@@H]3CN(S(C)(=O)=O)CCO[C@@H]3C2)c1 | 19.6
4 | CN(CCc1ccccc1)Cc1nc2c(cnn2C)c(=O)[nH]1 | -10.9
5 | Cc1cc(=O)n(CC(=O)NCC2CCCO2)c(-c2cccc(Cl)c2)n1 (centres undefined) | -2.89
6 | CC(c1nnc(-c2cccs2)o1)N1CCc2cncnc2C1 (centres undefined) | -1.71
7 | Cc1nn(C)c(N(C)C)c1CNC1CCCCNC1=O (centres undefined) | -4.25
8 | Cc1noc(C)c1CNCc1ccccc1N(C)C1CCN(C)CC1 | -4.38
9 | CN(C)C[C@@H]1CN(Cc2ccccc2C#N)C[C@@H]1CO | 2.25
10 | COc1ccnc(N2Cc3cnc(C(C)(C)C)nc3C2)n1 | 0.551
11 | Cc1nc(C)n(CCNC(=O)C(C)n2ccnc2C(C)C)n1 (centres undefined) | -0.492
12 | COc1ccc(OC)c(Sc2ncccc2C(=O)NCC2CC2)c1 | 24.9
13 | Cc1c(Br)cccc1NC(=O)N(C)CCO | -14.7
14 | CC(C)c1nnsc1CNC(=O)C1CCN(C(=O)C2CCC2)CC1 | -5.12
15 | CC(C)COc1cncc(N2CCCN(CC(F)(F)F)CC2)n1 | -5.33
16 | CC(=O)N(Cc1ncc(C(C)C)o1)C1CCN(CCC#N)C1 (centres undefined) | -7
17 | O=C(Cc1ccncc1)N1CCC2(CC1)CC(c1ccccc1)CO2 (centres undefined) | 19.4
18 | CCOc1ccccc1C(CC(=O)Nc1nc(C)cs1)NC(C)=O (centres undefined) | -8.99
19 | Clc1ccc(-n2cc(CNC3CCc4ncnn4C3)cn2)cc1 (centres undefined) | -12.4
20 | CCc1cnc(NC(=O)NC2CCN(C3CCCC3)CC2)s1 | -7.06
21 | O=C(NCCO)c1sc2ncccc2c1C1CN(C2CCCC2)CCO1 (centres undefined) | -3.18
22 | CCc1n[nH]c(C2CN(C(=O)c3nc(C)n4ccccc34)CCO2)n1 (centres undefined) | -20.1
23 | CN(Cc1cc2n(n1)CCCNC2)Cc1cc(-c2ccncc2)no1 | -5.61

Row | Compound | cytotoxicity at 70.5 h [%]
24 | CC(C)(O)CN1CCN(C(=O)c2cccn2Cc2ccccc2)CC1 | -6.76
25 | O=C(NCC1CC1)c1ccc(NC(=O)c2ccco2)cc1 | -5.31
26 | Cc1nc(CN(C)C2CCCN(c3cccnn3)C2)no1 (centres undefined) | 17.1
27 | CCNc1ncc(CN2C[C@H]3CC[C@@H]2CN(C(=O)C2CCC2)C3)cn1 | -7.7
28 | C=C/C=c1\c(=C/C)oc2c(NCc3ccccc3)nc(C)nc12 | 13.2
29 | Cc1ccc(CN2CCC3(CCCC(=O)N3)CC2)s1 | -3.64
30 | O=C(c1cccs1)N1CCC[C@]2(C[C@@H](OCc3ccncc3)CO2)C1 | -4.03
31 | Cn1nccc1-c1ncc2c(c1C(=O)O)CCN(Cc1cccnc1)C2 | -2.63
32 | Cc1nnc(N2CCCC(CS(N)(=O)=O)C2)c(C#N)c1C (centres undefined) | -2.95
33 | O=C1N(Cc2ccccn2)C[C@H]2CN(C3CCC3)CCN12 | 2.38
34 | CCN(Cc1ccoc1)C(=O)Nc1ccccc1CN1CCOCC1 | 7.89
35 | CCCN1CC2(CCN(C)CC2)CC1C(=O)NCCn1ccc(C)n1 (centres undefined) | -1.37
36 | Cn1cccc1C(=O)N1C[C@@H]2CCCO[C@@H]2[C@H](N2CCOCC2)C1 | 0.647
37 | Cc1ccnc(NCCCN2CCc3ccccc32)n1 | -2.9
38 | Cc1cccc(C(=O)N2CCc3ncnc(C4CCOC4)c3CC2)n1 (centres undefined) | -0.465
39 | CCNC(=O)c1nc2c(s1)CCCN2S(C)(=O)=O | 28.7
40 | CCC(O)CN(c1ccccc1)S(=O)(=O)c1cnc(C)s1 (centres undefined) | 18.5
41 | CCC[C@H]1CN(S(C)(=O)=O)C[C@@H]1NC(=O)CCOCC | -2.88
42 | Cc1cnc(C(C)(C)NC(=O)NCc2ccc(C#N)cc2F)s1 | -5.64
43 | Cc1cnn(C2CCCN(C(=O)c3ccc(-n4cnnn4)cc3)C2)c1 (centres undefined) | 0.981
44 | CC1c2cccn2CCN1C(=O)CCc1nc(C2CC2)no1 (centres undefined) | -8.57
45 | O=C(c1ccsc1)N1CCO[C@@H]2CN(Cc3nccs3)C[C@@H]2C1 | -3.17
46 | Cn1cc(-c2cnc(N3CCOCC3)nc2)cc1C(=O)N1CCCC1 | -27.5

Row | Compound | cytotoxicity at 70.5 h [%]
47 | CCOCC(O)CN1CCN(C(=O)c2cc(C)ccc2OC)CC1 (centres undefined) | -5.99
48 | CC(C)Cc1noc(COc2ccc(N(C)C(N)=O)cc2)n1 | -6.27
49 | CCCN1CCCC2(CCN(Cc3noc(C4CCCC4)n3)C2)C1=O (centres undefined) | 3.33
50 | CCc1nnsc1C(=O)N(C)Cc1ccc(Br)o1 | -2.39
51 | Cc1cc(CN(CCO)c2ccc(Br)cc2)on1 | -0.419
52 | Cc1ccc(C)c2c(C)c(C(=O)NCC[S+](C)[O-])[nH]c12 (centres undefined) | -4.15
53 | Cc1cc(CN2CCN(C(C)c3nc(C(C)C)no3)CC2)no1 (centres undefined) | -7.52
54 | CN(C)CC1(O)CCN(C(=O)c2cnc(CN3CCCC3)s2)C1 (centres undefined) | 0.326
55 | CNC(=O)C1Cn2ccnc2C2(CCN(Cc3c(C)noc3C)CC2)O1 (centres undefined) | 21.5
56 | CN(C(=O)OC(C)(C)C)C1CCN(C(=O)c2cc(Cl)c[nH]2)C1 (centres undefined) | 13
57 | Cc1cc(Nc2ccc3c(c2)CC(=O)N3)nc(C(C)C)n1 | -6.82
58 | NC(=O)NCC1CCCCN1Cc1nc(-c2ccco2)no1 (centres undefined) | -9.61
59 | COc1ccc(-n2ncc(C(C)NC3CCOCC3)c2C)cc1 (centres undefined) | -1.36
60 | CC(C(=O)NCc1ccc(N2CCCC2)nc1)n1cncn1 (centres undefined) | -0.612
61 | Cc1cnn(CCNCc2cccnc2)c1 | -1.13
62 | CCc1nnc(CS(=O)(=O)c2ccc(C)c(C)c2)n1C | 26.2
63 | FC(F)(F)c1ccnc(N2CCCN(Cc3ccccn3)CC2)n1 | 11.3
64 | O=C(c1cc(C2CCCCN2C(=O)C2CCC2)n[nH]1)N1CCOCC1 (centres undefined) | 18.8
65 | CCN(CC)CCNc1nc(C(C)C)nc2c(C)nn(CC)c12 | -2.61
66 | CC(C)c1ccc(C2CC(=O)Nc3c2cnn3C)cc1 (centres undefined) | -15.6
67 | Cc1ccc(NC2CCN(C(=O)c3cc(C)sc3C)CC2)nn1 | -11.8
68 | Cc1noc(C)c1CN1CCn2c(COC(C)C)nnc2C1 | -10.8
69 | Cc1ccnn1CCC(=O)N(Cc1ccsc1)CC(C)C | -2.24

Row | Compound | cytotoxicity at 70.5 h [%]
70 | CCC1c2cccn2CCN1C(=O)c1ccno1 (centres undefined) | -9.21
71 | COC1CCN(S(=O)(=O)N2CCC3(CCCNC3=O)C2)CC1 (centres undefined) | -0.998
72 | CC(NCc1ccccc1O)c1ccc(-n2ccnc2)cc1 (centres undefined) | 26.4
73 | CCOC(=O)NC1CCCN(Cc2ccc(-n3cncn3)c(C)c2)C1 (centres undefined) | -0.7
74 | Cc1cc(C(=O)N2CCc3c(CN(C)C(C)C)n[nH]c3C2)[nH]n1 | 0.919
75 | Cc1occc1C(=O)N1C[C@@H](OCc2cccnc2)[C@H]2OCCC[C@@H]21 | -21.3
76 | c1ccc(OCc2nnc3n2CCN(Cc2ccco2)C3)nc1 | -2.29
77 | CCn1cnnc1CNC(=O)N1CCN(c2nc(C)c(C)s2)CC1 | -3.66
78 | O=C(O)c1ccccc1-c1ccc(CN2CCCC(O)C2)cc1 (centres undefined) | -8.74
79 | Cc1cn2c(n1)CCC(NC(=O)c1nc(C)ncc1Cl)C2 (centres undefined) | -8.31
80 | COC(=O)c1cccn1C1CCN(Cc2ccccc2)CC1 | 15.7
81 | CCC1c2ccsc2CCN1C(=O)NCc1cccnc1N(C)C (centres undefined) | 13
82 | CC(C)S(=O)(=O)N1CCCC(c2nnc(Cn3ccnc3)n2C)C1 (centres undefined) | -7.74
83 | Cc1ccc(CN2CCC3(CC2)CC3CN(C)Cc2cccnc2)o1 (centres undefined) | -5.02
84 | COc1ccc2c(c1)OC1(CCN(Cc3ccccc3C)CC1)CC2=O | -3.9
85 | CCc1nnc2n1CC(CNCc1nc(C)c(C)o1)CC2 (centres undefined) | -2.88
86 | COc1ccccc1C(O)Cn1cc(C(=O)NCC2CC2)nn1 (centres undefined) | -2.27
87 | CN(C)C(=O)CCCn1ccc(NC(=O)NCc2cccc(F)c2)n1 | -16.5
88 | CS(=O)(=O)NCc1nnc2n1CCN(Cc1cccs1)C2 | -3.11
89 | NC(=O)C1CCCN(Cc2ccc(C(=O)Nc3cnns3)cc2)C1 (centres undefined) | 5.24
90 | Cc1cnc(CN2CC=C(c3c[nH]c4ncccc34)CC2)o1 | 5.53
91 | CS(=O)(=O)N1CCOC2(CCN(c3nccs3)CC2)c2ccccc21 | 15.3
92 | CCN(Cc1nc(C(C)C)no1)Cc1cccs1 | -10.8

Row | Compound | cytotoxicity at 70.5 h [%]
93 | Cc1ccoc1C(=O)N1CCCC(c2cc(C(F)(F)F)[nH]n2)C1 (centres undefined) | -8.09
94 | Cc1noc(C)c1CN(C)C(=O)NC(C)Cc1ccco1 (centres undefined) | -1.49
95 | CCc1ccccc1OCCCN(C)C(=O)C1CCCN1C(N)=O (centres undefined) | -8.96
96 | O=C(CCn1cccn1)NCCOc1ccc2c(c1)OCO2 | -6.03
97 | CC(C(=O)NC(C)(C)C)S(=O)(=O)Cc1noc(C(C)(C)C)n1 (centres undefined) | -5.8
98 | CCS(=O)(=O)N1Cc2ncn(CC3CC3)c2C(COC)C1 (centres undefined) | -0.679
99 | CN(C)CC(=O)N1CC2(CCN(S(=O)(=O)c3ccccc3)C2)C1 | -6.71
100 | COCCC1(C(=O)O)CCCN(c2cc(C)c3ccccc3n2)C1 (centres undefined) | -8.76
101 | CCC(CO)N(Cc1cccc(O)c1)Cc1ccccc1C (centres undefined) | -5.23
102 | Cc1noc(C)c1CN(C)c1nccc(C(F)(F)F)n1 | 4.31
103 | COCCN1CCCC(Cc2ccc(N3CCOCC3)nn2)C1 (centres undefined) | -7.53
104 | CC(C)C1CN(C(=O)c2cc(=O)[nH]c(=O)[nH]2)CCC(=O)N1CC1CC1 (centres undefined) | -2.3
105 | Cc1ccc(N2CCCN(C(=O)CCCn3ccnc3C)CC2)nn1 | -0.226
106 | CC(C)(C)C(O)CCNC(=O)c1ccc(F)cc1Cl (centres undefined) | -16.1
107 | CC(C)CCNC(=O)c1ccc(-c2ccco2)[nH]c1=O | -1.63
108 | CCc1ccccc1OCCN(C)C(=O)CN1CCCC1 | -6.67
109 | COc1ccc(-c2nc(CN3CCN(CCO)CC3)co2)cc1 | 30.3
110 | COC(=O)NCC(=O)N1CCC(c2cc3ccccc3[nH]2)CC1 | -8.79
111 | Cn1cc(CN2CCc3ncnc(N4CCCC4)c3CC2)cn1 | -0.713
112 | CN1CCN(C(=O)c2ncn3c2CN(C)S(=O)(=O)c2ccccc2-3)CC1 | 1.76
113 | NC(=O)NC(=O)CCN1CCCC1c1nc(C2CCCCC2)co1 (centres undefined) | 13.4
114 | CC(=O)N1C[C@H]2CCCN(c3ncc(C)cn3)[C@H]2C1 | -11.8
